Marks after values point to notes of the source that are not given here.
Tests used:
Assay type in all cases: binding, rabbit
[1] = system: 1,7-DMU-Ab; assay: Competitive antigen ELISA, antibody specificity of 1,7-DMU-Ab; conditions: ideal antibody specificity result hypothesized; 0 = no inhibition or no higher than 40% at 5×10^−3 M
Experimental: (§1) BSA, antibodies, Tween™ 20 and horse radish peroxidase are added to buffers and water just prior to use. Urine samples are usually collected four hours after drinking a cup of coffee (instant or brewed with approximately 100 mg of caffeine per cup) and stored at −20° C. as 1-mL aliquots in 1.5-mL microtubes. For the ELISA, the urine samples are diluted with isotonic sodium phosphate buffer, pH 7.5 (310 mosM) to give concentrations of caffeine, 1.7-DMX and 1,7-DMU no higher than 3×10^−6 M in the microtiter plate wells. Wells of the ELISA plate are washed with a Nunc-Immuno wash 12 washer. Sixteen milliliters of a solution of 6.6 μg ml^−1 of isolated IgG antibodies is prepared in a 100 mM sodium carbonate buffer, pH 9.6, and 150 μL of this solution is pipetted in each well of a microtiter plate using a eight channel pipet (Brinkmann Transferpette™-8 50-200 μL) and 200 μL Flex tips from Brinkmann). After coating the wells with antibodies at 4° C. for 20 hours, the wells are washed 3 times with the isotonic sodium phosphate buffer containing 0.05% Tween™ 20 (IPBT) and properly drained by inverting the plate and absorbing the liquid on to a piece of paper towel. Thirty milliliters of a solution of a IPBT solution containing 1% BSA is prepared and 150 μL of this solution is pipetted in each well using a eight channel pipet (Brinkmann Transferpette ™-8 50-200 μL) and 200 μL yellow tips (Sarstedt yellow tips for P200 Gilson Pipetman). After 3 hours at room temperature, the wells are washed 3 times with IPBT solution and drained. Samples of 400 μL for determination of caffeine, 1,7-DMX and 1,7-DMU are prepared in 1.5-mL microtubes using Sarstedt yellow tips and a P200 Gilson Pipetman. Then, 200 μL of each sample are pipetted in duplicate in a Falcon 96-well microtest tissue culture plate according to the pattern shown in FIG. 22, using Sarstedt yellow tips and a P200 Gilson Pipetman. Using an eight channel pipet (Brinkmann Transferpette™-8 50-200 μL) and changing the tips of the eight channel pipet (200μL Flex tips from Brinkmann) at each row, 150 μL of samples are transferred in the corresponding wells of a 96-well ELISA microtiter plate coated with antibodies. After the addition of the samples, the microtiter plates are covered and left standing at room temperature for 2 h. While the plate is left standing the substrate buffer without the hydrogen peroxide and o-phenylenediamine hydrochloride is prepared (25 mM citric acid and 50 mM sodium phosphate dibasic buffer, pH 5.0). The microtiter plate is washed 3 times with the IPBT solution and 3 times with a 0.05% Tween™ 20 solution and drained. Then, 50 μL of hydrogen peroxide and 40 mg of o-phenylenediamine are added to the substrate buffer. One hundred fifty microliters (150 μL) of the substrate buffer solution is then added to each well using a eight channel pipet (Brinkmann Transferpette™-8 50-200 μL) and 200 μL Flex tips (Brinkmann). The microtiter plate is covered and shaken for 25-30 min at room temperature and the enzymatic reaction is stopped by adding 50 μL/well of a 2.5 N HCl solution using an eight channel pipet (Brinkmann Transferpette™-8 50-200 μL) and 200L Flex tips (Brinkmann).

[2] = system: 1X-Ab; assay: Competitive antigen ELISA, cross-reactivity of 1X-Ab; conditions: for % Cross-Reaction 1X-Ab: 0 = absence of inhibition or inhibition no higher than 40% at the highest concentration tested (5×10^−3 M)
Experimental: (§2) Buffers and water without additives are filtered through millipore filters and kept for 1 week. BSA, antibodies, Tween™ 20 and horse radish peroxidase conjugates are added to these buffers and water just prior to use. Urine samples are usually collected 4 hours after drinking a cup of coffee (instant or brewed with approximately 100 mg of caffeine per cup) and stored at −80° C. The urine samples are diluted 10 times with sodium phosphate buffer (620 mosm, pH 7.50) and are subsequently diluted with water to give concentrations of AAMU and 1X no higher than 3×10^−6 M in the ELISA. All the pipettings are done with an eight-channel pipette, except those of the antibody and sample solutions. Starting with the last well, 100 μL of a carbonate buffer (100 mM, pH 9.6) containing 2.5 μg mL-1 antibodies are added to each well. After 90 min. at room temperature, the wells are washed three times with […] of TPB: isotonic sodium phosphate buffer (310 mosm, pH 7.50) containing 0.05% Tween™ 20.
(§3) After the initial wash, unoccupied sites are blocked by incubation for 90 min. at room temperature with 100 μL TBP containing 3% BSA. The wells are washed four times with 100 μL TPB. […] The microplate is gently shaken with an orbital shaker at room temperature for 3-4 hours. The wells are washed three times with 100 μL TPB containing 1% BSA and three times with water containing 0.05% Tween ™ 20. To the washed plate is added 150 μL of a substrate buffer composed of citric acid (25 mM) and sodium phosphate dibasic buffer (50 mM, pH 5.0) containing 0.06% hydrogen peroxide and 0.04% o-phenylenediamine hydrochloride.
(§4) Buffers and water without additives were filtered through millipore filters and kept for 1 week. BSA, antibodies, Tween ™ 20 and horse radish peroxidase conjugates were added to these buffers and water just prior to use. Urine samples were usually collected 4 hours after drinking a cup of coffee (instant or brewed with approximately 100 mg of caffeine per cup) and stored at 80° C. They were diluted 10 times with sodium phosphate buffer (620 mosm, pH 7.50) and were subsequently diluted with water to give concentrations of AAMU and 1X no higher than 3×10^−6 M in the ELISA. All the pipettings were done with an eight-channel pipette, except those of the antibody and sample solutions. Starting with the last well, 100 μL of a carbonate buffer (100 mM, pH 9.6) containing 2.5 μg mL^−1 antibodies was pipetted. After 90 min. at room temperature, the wells were washed three times with 100 μL of TPB: isotonic sodium phosphate buffer (310 mosm, pH 7.50) containing 0.05% Tween™ 20.
(§5) After the initial wash, unoccupied sites were blocked by incubation for 90 min. at room temperature with 100 μL TBP containing 3% BSA. The wells were washed four times with 100 μL TPB. […] The microplate was gently shaken with an orbital shaker at room temperature for 3-4 hours. The wells were washed three times with 100 μL with TPB containing 1% BSA and three times with water containing 0.05% Tween™ 20. To the washed plate was added 150 μL of a substrate buffer composed of citric acid (25 mM) and sodium phosphate dibasic buffer (50 mM, pH 5.0) containing 0.06% hydrogen peroxide and 0.04% o-phenylenediamine hydrochloride. After 20 min. at room temperature with shaking, the reaction was stopped with 50 μL of 2.5 N HCl.
(§6) The cross reactivities of AAMU-Ab and 1X-Ab were tested using a wide variety of caffeine metabolites and structural analogs (Table 5 below).

[3] = system: Caffeine-Ab; assay: Competitive antigen ELISA, antibody specificity of caffeine-Ab; conditions: ideal antibody specificity result hypothesized; 0 = no inhibition or no higher than 40% at 5×10^−3 M
Experimental: as §1

[4] = system: 1,7-DMX-Ab; assay: Competitive antigen ELISA, antibody specificity of 1,7-DMX-Ab; conditions: ideal antibody specificity result hypothesized; 0 = no inhibition or no higher than 40% at 5×10^−3 M
Experimental: as §1

[5] = system: AAMU-Ab; assay: Competitive antigen ELISA, cross-reactivity of AAMU-Ab; conditions: 0 = absence of inhibition or inhibition no higher than 40% at the highest concentration tested (5×10^−3 M)
Experimental: as §2, §3, §4, §5, §6

Cn1c(=O)[nH]c2nc[nH]c2c1=O [1-Methyl Xanthine (1X), 1-Methyl Xanthine]
% Cross-reaction 1,7-DMU-Ab [1]: 0%
% Cross-Reaction 1X-Ab [2]: 100%
IC50 ([2]; read-out: concentration required for 50% inhibition in the competitive antigen ELISA, 1X-Ab): 10 µM
% Cross-reaction Caffeine-Ab [3]: 0%
% Cross-reaction 1,7-DMX-Ab [4]: 0%
% Cross-Reaction AAMU-Ab [5]: 0%

O=c1[nH]c(=O)c2[nH]cnc2[nH]1 [Xanthine]
% Cross-reaction 1,7-DMU-Ab [1]: 0%
% Cross-Reaction 1X-Ab [2]: 0%
% Cross-reaction Caffeine-Ab [3]: 0%
% Cross-reaction 1,7-DMX-Ab [4]: 0%
% Cross-Reaction AAMU-Ab [5]: 0^a %

Cn1cnc2c1c(=O)[nH]c(=O)n2C [3,7-Dimethyl Xanthine (Theobromine), 3,7-Dimethyl Xanthine]
% Cross-reaction 1,7-DMU-Ab [1]: 0%
% Cross-Reaction 1X-Ab [2]: 0%
% Cross-reaction Caffeine-Ab [3]: 0%
% Cross-reaction 1,7-DMX-Ab [4]: 0%
% Cross-Reaction AAMU-Ab [5]: 0%

Cn1c(=O)[nH]c2[nH]c(=O)[nH]c2c1=O [1-Methyluric acid]
% Cross-reaction 1,7-DMU-Ab [1]: 0%
% Cross-Reaction 1X-Ab [2]: 11%
% Cross-reaction Caffeine-Ab [3]: 0%
% Cross-reaction 1,7-DMX-Ab [4]: 0%
% Cross-Reaction AAMU-Ab [5]: 0%

Cn1c(=O)c2[nH]c(=O)[nH]c2n(C)c1=O [1,3-Dimethyluric acid]
% Cross-reaction 1,7-DMU-Ab [1]: 0%
% Cross-reaction Caffeine-Ab [3]: 0%
% Cross-reaction 1,7-DMX-Ab [4]: 0%

CC(=O)Nc1c(N)n(C)c(=O)n(C)c1=O [5-Acetamino-6-amino-1,3-dimethyluracil]
% Cross-reaction 1,7-DMU-Ab [1]: 0%
% Cross-Reaction 1X-Ab [2]: 0%
% Cross-reaction Caffeine-Ab [3]: 0%
% Cross-reaction 1,7-DMX-Ab [4]: 0%
% Cross-Reaction AAMU-Ab [5]: 0%

Cn1c(=O)c2[nH]cnc2n(C)c1=O [1,3-Dimethyl Xanthine (Theophylline), 1,3-Dimethyl Xanthine]
% Cross-reaction 1,7-DMU-Ab [1]: 0%
% Cross-Reaction 1X-Ab [2]: 0.2%
% Cross-reaction Caffeine-Ab [3]: 0%
% Cross-reaction 1,7-DMX-Ab [4]: 0%
% Cross-Reaction AAMU-Ab [5]: 0%

Cn1c(=O)[nH]c(=O)c2[nH]cnc21 [3-Methyl Xanthine]
% Cross-reaction 1,7-DMU-Ab [1]: 0%
% Cross-Reaction 1X-Ab [2]: 0%
% Cross-reaction Caffeine-Ab [3]: 0%
% Cross-reaction 1,7-DMX-Ab [4]: 0%
% Cross-Reaction AAMU-Ab [5]: 0%

O=c1cc[nH]c(=O)[nH]1 [Uracil]
% Cross-reaction 1,7-DMU-Ab [1]: 0%
% Cross-Reaction 1X-Ab [2]: 0%
% Cross-reaction Caffeine-Ab [3]: 0%
% Cross-reaction 1,7-DMX-Ab [4]: 0%
% Cross-Reaction AAMU-Ab [5]: 0%

Cn1c(=O)[nH]c2ncn(C)c2c1=O [1,7-Dimethyl Xanthine (Paraxanthine), 1,7-Dimethyl Xanthine]
% Cross-reaction 1,7-DMU-Ab [1]: 0%
% Cross-Reaction 1X-Ab [2]: 0.5%
% Cross-reaction Caffeine-Ab [3]: 0%
% Cross-reaction 1,7-DMX-Ab [4]: 100%
% Cross-Reaction AAMU-Ab [5]: 0%

Cn1c(=O)[nH]c(=O)c2[nH]c(=O)[nH]c21 [3-Methyluric acid]
% Cross-reaction 1,7-DMU-Ab [1]: 0%
% Cross-reaction Caffeine-Ab [3]: 0%
% Cross-reaction 1,7-DMX-Ab [4]: 0%

Cn1c(=O)[nH]c(=O)c2c1[nH]c(=O)n2C [3,7-Dimethyluric acid]
% Cross-reaction 1,7-DMU-Ab [1]: 0%
% Cross-reaction Caffeine-Ab [3]: 0%
% Cross-reaction 1,7-DMX-Ab [4]: 0%

Cn1c(=O)c2c(ncn2C)n(C)c1=O [1,3,7-Trimethyl Xanthine (Caffeine), 1,3,7-Trimethyl Xanthine]
% Cross-reaction 1,7-DMU-Ab [1]: 0%
% Cross-Reaction 1X-Ab [2]: 0%
% Cross-reaction Caffeine-Ab [3]: 100%
% Cross-reaction 1,7-DMX-Ab [4]: 0^a %
% Cross-Reaction AAMU-Ab [5]: 0%

Cc1nc2[nH]c(=O)[nH]c(=O)c2[nH]1 [8-Methyl Xanthine]
% Cross-reaction 1,7-DMU-Ab [1]: 0%
% Cross-Reaction 1X-Ab [2]: 0%
% Cross-reaction Caffeine-Ab [3]: 0%
% Cross-reaction 1,7-DMX-Ab [4]: 0%
% Cross-Reaction AAMU-Ab [5]: 0%

Nc1nc2nc[nH]c2c(=O)[nH]1 [Guanine]
% Cross-reaction 1,7-DMU-Ab [1]: 0%
% Cross-Reaction 1X-Ab [2]: 0%
% Cross-reaction Caffeine-Ab [3]: 0%
% Cross-reaction 1,7-DMX-Ab [4]: 0%
% Cross-Reaction AAMU-Ab [5]: 0%

Cn1c(=O)[nH]c2[nH]c(=O)[nH]c(=O)c21 [7-Methyluric acid]
% Cross-reaction 1,7-DMU-Ab [1]: 0%
% Cross-reaction Caffeine-Ab [3]: 0%
% Cross-reaction 1,7-DMX-Ab [4]: 0%

Cn1c(=O)c2c([nH]c(=O)n2C)n(C)c1=O [1,3,7-Trimethyluric acid]
% Cross-reaction 1,7-DMU-Ab [1]: 0%
% Cross-reaction Caffeine-Ab [3]: 0%
% Cross-reaction 1,7-DMX-Ab [4]: 0%

Source: patent US20030091975A1, “Multiple determinants for metabolic phenotypes” (priority 2001, published 2003)
